Measurements published in US6281169A, “Aqueous suspensions of low solubility and low stability water additives” (BioLab Services, Inc., priority 1999, dated 2001).
Where two headings read alike, the source gives them in different places.

Legend:
[1] = tested on: E. coli (ATCC #11229); assay: Biocidal efficacy, AOAC Official Method 965.13, gram-negative bacteria; assay type: cell-based
Description: (§1) The biocidal efficacy of dissolved BCDMH was compared to sodium hypochlorite using AOAC Official Method 965.13 (1995 Edition)--Disinfectant (Water) for Swimming Pools against the gram-negative bacteria E. coli (ATCC #11229) and the gram-positive bacteria Strep. faecalis (ATCC #6569). The desired nominal biocide dosage (0, 0.1, 0.3, 0.6 or 0.9 mg/l total halogen expressed as chlorine) was established by dilution from freshly prepared (filtered) standardized stock solutions of either BCDMH Powder or NaOCl into phosphate buffered water (approximate pH of 7.5 as described in the method). An inoculum was standardized to yield 2×10^8 organisms per ml. One ml of the standardized inoculum was mixed into 199 ml of phosphate buffered water containing the desired dosage of biocide. One-ml aliquots were removed at specific times (30, 60, 120 and 180 seconds after inoculum addition) and added, with mixing, into separate tubes containing 9 ml of thiosulfate solution to neutralize the oxidizing halogen. Five 1 ml aliquots of from each neutralization tube were then added and mixed into five separate tubes each containing 9 ml of subculture broth. After 48 hours of incubation, these were examined to determine growth or no growth in the subculture medium. […]

[2] = cited from earlier work
[3] = tested on: Strep. faecalis (ATCC #6569); assay: Biocidal efficacy, AOAC Official Method 965.13, gram-positive bacteria; assay type: cell-based
Description: as §1

[4] = background; cited from earlier work
[5] = tested on: bacteria; assay: Biocidal efficacy comparison, both bacteria (in words); assay type: cell-based, E. coli; Strep. faecalis; conditions: compared with NaOCl, predissolved BCDMH or other Examples
Description: The biocidal efficacy of dissolved BCDMH was compared to sodium hypochlorite using AOAC Official Method 965.13 (1995 Edition)--Disinfectant (Water) for Swimming Pools against the gram-negative bacteria E. coli (ATCC #11229) and the gram-positive bacteria Strep. faecalis (ATCC #6569). The desired nominal biocide dosage (0, 0.1, 0.3, 0.6 or 0.9 mg/l total halogen expressed as chlorine) was established by dilution from freshly prepared (filtered) standardized stock solutions of either BCDMH Powder or NaOCl into phosphate buffered water (approximate pH of 7.5 as described in the method). An inoculum was standardized to yield 2×10^8 organisms per ml. One ml of the standardized inoculum was mixed into 199 ml of phosphate buffered water containing the desired dosage of biocide. One-ml aliquots were removed at specific times (30, 60, 120 and 180 seconds after inoculum addition) and added, with mixing, into separate tubes containing 9 ml of thiosulfate solution to neutralize the oxidizing halogen. Five 1 ml aliquots of from each neutralization tube were then added and mixed into five separate tubes each containing 9 ml of subculture broth. After 48 hours of incubation, these were examined to determine growth or no growth in the subculture medium.
The efficacy of this preparation was tested as described in Example 1 except that no stock solution of the preparation was made. […]

[6] = cited from earlier work; for hydrolytic stability (in words): background
[7] = 0.1 ppm total halogen as Cl2, 30 sec
[8] = 0.1 ppm total halogen as Cl2, 60 sec
[9] = 0.1 ppm total halogen as Cl2, 120 sec
[10] = 0.1 ppm total halogen as Cl2, 180 sec
[11] = 0.3 ppm total halogen as Cl2, 30 sec
[12] = 0.3 ppm total halogen as Cl2, 60 sec
[13] = 0.3 ppm total halogen as Cl2, 120 sec
[14] = 0.3 ppm total halogen as Cl2, 180 sec
[15] = 0.6 ppm total halogen as Cl2, 30 sec
[16] = 0.6 ppm total halogen as Cl2, 60 sec
[17] = 0.6 ppm total halogen as Cl2, 120 sec
[18] = 0.6 ppm total halogen as Cl2, 180 sec
[19] = 0.9 ppm total halogen as Cl2, 30 sec
[20] = 0.9 ppm total halogen as Cl2, 60 sec
[21] = 0.9 ppm total halogen as Cl2, 120 sec
[22] = 0.9 ppm total halogen as Cl2, 180 sec

CC1(C)C(=O)N(Cl)C(=O)N1Br [BCDMH, bromochlorodimethylhydantoin]
Number of Tubes Exhibiting Growth [1, 7]: 5 Tubes (Out of 5)
Number of Tubes Exhibiting Growth [1, 8]: 5 Tubes (Out of 5)
Number of Tubes Exhibiting Growth [1, 9]: 5 Tubes (Out of 5)
Number of Tubes Exhibiting Growth [1, 10]: 5 Tubes (Out of 5)
Number of Tubes Exhibiting Growth [1, 11]: 5 Tubes (Out of 5)
Number of Tubes Exhibiting Growth [1, 12]: 5 Tubes (Out of 5)
Number of Tubes Exhibiting Growth [1, 13]: 5 Tubes (Out of 5)
Number of Tubes Exhibiting Growth [1, 14]: 5 Tubes (Out of 5)
Number of Tubes Exhibiting Growth [1, 15]: 0 Tubes (Out of 5)
Number of Tubes Exhibiting Growth [1, 16]: 0 Tubes (Out of 5)
Number of Tubes Exhibiting Growth [1, 17]: 0 Tubes (Out of 5)
Number of Tubes Exhibiting Growth [1, 18]: 0 Tubes (Out of 5)
Number of Tubes Exhibiting Growth [1, 19]: 0 Tubes (Out of 5)
Number of Tubes Exhibiting Growth [1, 20]: 0 Tubes (Out of 5)
Number of Tubes Exhibiting Growth [1, 21]: 0 Tubes (Out of 5)
Number of Tubes Exhibiting Growth [1, 22]: 0 Tubes (Out of 5)
water solubility ([2]; 20° C.): approximately 1,500 mg/liter
Number of Tubes Exhibiting Growth [3, 7]: 5 Tubes (Out of 5)
Number of Tubes Exhibiting Growth [3, 8]: 5 Tubes (Out of 5)
Number of Tubes Exhibiting Growth [3, 9]: 5 Tubes (Out of 5)
Number of Tubes Exhibiting Growth [3, 10]: 5 Tubes (Out of 5)
Number of Tubes Exhibiting Growth [3, 11]: 5 Tubes (Out of 5)
Number of Tubes Exhibiting Growth [3, 12]: 5 Tubes (Out of 5)
Number of Tubes Exhibiting Growth [3, 13]: 4 Tubes (Out of 5)
Number of Tubes Exhibiting Growth [3, 14]: 1 Tubes (Out of 5)
Number of Tubes Exhibiting Growth [3, 15]: 0 Tubes (Out of 5)
Number of Tubes Exhibiting Growth [3, 16]: 0 Tubes (Out of 5)
Number of Tubes Exhibiting Growth [3, 17]: 0 Tubes (Out of 5)
Number of Tubes Exhibiting Growth [3, 18]: 0 Tubes (Out of 5)
Number of Tubes Exhibiting Growth [3, 19]: 0 Tubes (Out of 5)
Number of Tubes Exhibiting Growth [3, 20]: 0 Tubes (Out of 5)
Number of Tubes Exhibiting Growth [3, 21]: 0 Tubes (Out of 5)
Number of Tubes Exhibiting Growth [3, 22]: 0 Tubes (Out of 5)
dissolving behaviour (in words) [4]: dissolves slowly
biocidal efficacy (in words) [5]: approximately the same
hydrolytic stability (in words) [6]: not hydrolytically stable

O=[N+]([O-])C(Br)=Cc1ccco1 [BNEF, 2-(2-bromo-2-nitro)-ethenyl furan]
solubility in water ([2]; 25° C.): 300 ppm
decomposition half-life ([6]; pH 4, 50° C.): 2.33 h
decomposition half-life ([6]; pH 4, 60° C.): 1.77 h
decomposition half-life ([6]; pH 4, 70° C.): 0.817 h
decomposition half-life ([6]; pH 5, 25° C.): 71 h
decomposition half-life ([6]; pH 6, 25° C.): 37 h
decomposition half-life ([6]; pH 9, 25° C.): 6 h

O=c1[nH]c(=O)[nH]c(=O)[nH]1 [CYA, S-triazine-2,4,6-trione]
solubility in water ([2]; 20° C.): approximately 2700 ppm
dissolving behaviour (in words) [4]: fairly tough to dissolve

[Na+].[O-]Cl [NaOCl, sodium hypochlorite]
Number of Tubes Exhibiting Growth [1, 7]: 5 Tubes (Out of 5)
Number of Tubes Exhibiting Growth [1, 8]: 5 Tubes (Out of 5)
Number of Tubes Exhibiting Growth [1, 9]: 5 Tubes (Out of 5)
Number of Tubes Exhibiting Growth [1, 10]: 5 Tubes (Out of 5)
Number of Tubes Exhibiting Growth [1, 11]: 5 Tubes (Out of 5)
Number of Tubes Exhibiting Growth [1, 12]: 5 Tubes (Out of 5)
Number of Tubes Exhibiting Growth [1, 13]: 3 Tubes (Out of 5)
Number of Tubes Exhibiting Growth [1, 14]: 1 Tubes (Out of 5)
Number of Tubes Exhibiting Growth [1, 15]: 0 Tubes (Out of 5)
Number of Tubes Exhibiting Growth [1, 16]: 0 Tubes (Out of 5)
Number of Tubes Exhibiting Growth [1, 17]: 0 Tubes (Out of 5)
Number of Tubes Exhibiting Growth [1, 18]: 0 Tubes (Out of 5)
Number of Tubes Exhibiting Growth [3, 7]: 5 Tubes (Out of 5)
Number of Tubes Exhibiting Growth [3, 8]: 5 Tubes (Out of 5)
Number of Tubes Exhibiting Growth [3, 9]: 5 Tubes (Out of 5)
Number of Tubes Exhibiting Growth [3, 10]: 5 Tubes (Out of 5)
Number of Tubes Exhibiting Growth [3, 11]: 5 Tubes (Out of 5)
Number of Tubes Exhibiting Growth [3, 12]: 5 Tubes (Out of 5)
Number of Tubes Exhibiting Growth [3, 13]: 5 Tubes (Out of 5)
Number of Tubes Exhibiting Growth [3, 14]: 5 Tubes (Out of 5)
Number of Tubes Exhibiting Growth [3, 15]: 0 Tubes (Out of 5)
Number of Tubes Exhibiting Growth [3, 16]: 0 Tubes (Out of 5)
Number of Tubes Exhibiting Growth [3, 17]: 0 Tubes (Out of 5)
Number of Tubes Exhibiting Growth [3, 18]: 0 Tubes (Out of 5)
biocidal efficacy (in words) [5]: approximately the same

CCNc1nc(Cl)nc(NC(C)(C)C)n1 [terbuthylazine, 2-(tert-butylamino)-4-chloro-6-(ethylamino)-s-triazine]
solubility in water ([2]; 25° C.): 11.5 ppm
hydrolytic stability (in words) [6]: good hydrolytic stability
degradation half life ([6]; pH 5): 73 days
degradation half life ([6]; pH 9): 194 days
